# According to patent US20050020544A1, “Bicyclic CB2 cannabinoid receptor ligands” (priority 2002, published 2005):
# Tests used:
# C57/BL male mice = test: MPTP model for Parkinson's disease, TH immunoreactivity in SNpc; type: in vivo, mouse; conditions: 20 mg/kg i.p., once before first MPTP, day 7
# Experimental: The mice (C57/BL male mice, average weight 30 g, Harlan, Israel) were administered i.p. with 4 injections of MPTP (Sigma, USA) (20 mg/kg, 5 ml/kg) in saline (Teva Medical Israel) at 2 hours interval on day 1. The treatment groups, including: (a) Saline, untreated, (b) MPTP, untreated, (c) Vehicle (1:20of CREMOPHOR EL®:ethanol), 5 ml/kg i.p., and (d) test compounds, were administered i.p. once just before the first MPTP administration. Seven days following the MPTP treatment the animals were sacrificed (by i.p. administration of pentobarbitone sodium CTS Israel 100 mg/kg) and their brains removed for tyrosine hydroxylase (TH) detection using immunohistochemistry technique.
# Brains were fixed by cardiac perfusion with 4% Paraformaldehyde followed by immersion of the brain in the same fixative for at least 72 hours. Then brains were washed with PBS and transferred to 30% sucrose in PBS until they sank. After the brains sink in the sucrose, they were frozen using the cryostat special fast freezing (−60° C.). […] Quantitative analysis was performed by counting of immunoreactive (IR) cells at the widest dimension of the SNpc lateral to the roots of the third cranial nerve separating medial and lateral SN at the level of interpreduncular nucleus. The amount of the labeling at the striatum level was evaluated using computerized image analysis system.
# All data are expressed as mean±SD. […]
# Sprague Dawley male rats = test: Tail flick model, i.v.; type: in vivo, rat; conditions: for % animals with latency time twice superior to vehicle: ninety minutes
# Experimental: Each treatment group contained at least 6 animals. […] Its vehicle, saline, was also included as control.
# Two parameters were used to analyze the results, the latency time and the % of animals showing analgesia. […] The results in both cases are expressed as mean±SE.
# Similar studies were performed in Sprague Dawley male rats where the drug was injected i.v. instead of i.p. in the mice model. […] These observations are consistent with the route of administration. In the i.p. study the first time point post-injection was 30 minutes, while it was 10 minutes following i.v. injection thus the onset of action was not thoroughly determined in these experiments. […] At the last time point tested (330 minutes following injection), almost 70% of the animals treated with 4 mg/kg of compound A retained increase resistance to pain.
# adult male ICR mice = test: Ear edema model (Croton oil); type: in vivo, mouse; conditions: 3 hours after Croton oil
# Experimental: The anti-inflammatory activity of the novel bicyclic CB2 ligands was screened in vivo using an ear edema model in mice. This test system utilizes various inflammation inducers, including Croton oil (CO) and Arachidonic acid (AA) and the outcome is assessed by measuring ear tissue swelling. […] The ability of the test compounds to prevent or diminish the inflammatory response to these stimulants is indicative of their systemic anti-inflammatory capability.
# Compound A was dissolved in CREMOPHOR EL®:ethanol and injected i.p. in adult male ICR mice (30 g average body weight, Harlan, Israel) after dilution with sterile 0.9% sodium chloride to desired final concentrations according to required doses. Various doses of compounds were checked ranging from 0 to 30 mg/kg. Each treatment group was composed of 8-10 animals while the vehicle treated group was composed of 16 animals. […] Ear thickness was determined (in 0.01 mm units) 3 hours after CO application using a dial thickness gauge (Mitutoyo, Japan). Finally the ears were trimmed, an ear punch of 6 mm diameter was removed and its weight was measured. The ear edema is expressed as the ratio of ear punch weight of the CO treated ear versus the contralateral Acetone treated ear. Results are calculated as % inhibition as compared to CREMOPHOR EL®:ethanol vehicle treated animals.
# Lewis rats = type: in vivo, rat
# Experimental: Various animal models of autoimmune encephalomyelitis are known in the art, depending on the method of induction, the strain of the animal and the antigen employed to induce the disease. The impact of bicyclic CB2 ligands was tested in EAE using Lewis rats in which the onset of disease is observed by the appearance of clinical symptoms about 10 days after induction. The disease progress and the clinical score increase and peak around day 15 and spontaneous recovery is observed around day 18 after induction of the disease. The animals (at least 9 per test group at initiation of study, except for the untreated control group that comprised only 5 rats) were maintained on a 12 hours light/12 hours dark regimen, at a constant temperature of 22° C., with food and water ad libitum. EAE was induced in these animals by immunization with s.c. injection to the hind paws of 25 μg of purified guinea pig myelin basic protein (MBP, Sigma) emulsified in 0.1 ml of Complete Freund's Adjuvant (Difco).
# Methylprednisolone was used as positive control and it was administered daily for 5 consecutive days i.v. at 30 mg/kg starting from day of disease induction by MBP injection. The results are recorded as clinical score; score of 0 indicates a normal animal with no clinical signs, 0.5 indicates a loss of tonicity in the tail's distal part, 1 indicates whole tail paralysis, 2 indicates paraplegia, 3 indicates quadriplegia, 4 indicates complete body paralysis and moribund state and 5 indicates death. The clinical score of the animals is recorded for 11 days following onset of disease and the area under the curve (AUC) is calculated over this period of time.
# Moreover, in a separate study animals were euthanized 15 days after induction of the disease by i.p. injection of 100 mg/kg pentobarbital. Brains and spinal cord were removed and were fixed by overnight incubation with 4% Paraformaldehyde. The cervical segment of the spinal cord was dehydrated using ethanol solutions of increasing concentration and then embedded in paraplast. The spinal cord was then sectioned (10 μm) and staining was performed using hematoxylin and eosin. The stained slides were examined under light microscopy for foci of infiltrating lymphocytes. Number of foci were counted and averaged in 6 sections for each animal. Three groups of at least 4 animals each were tested in this system: untreated, vehicle treated, and animals treated with 0.5 mg/kg of compound A. Results are expressed as average±SD of number of foci.
SMILES,SN dopaminergic (TH-IR) cells rescued from MPTP toxicity (C57/BL male mice),% animals with latency time twice superior to vehicle (Sprague Dawley male rats; 3 mg/kg i.v.) [%],"% animals with increased resistance to pain (Sprague Dawley male rats; 4 mg/kg i.v., 330 minutes) [%]",% animals with latency time twice superior to vehicle (Sprague Dawley male rats; 4 mg/kg i.v.) [%],"ED50 (adult male ICR mice; Mus musculus, ip) [mg/kg]",ED50 ear edema (adult male ICR mice; i.p.) [µmol/kg],"decrease of infiltration (Lewis rats; 0.5 mg/kg, 15 days after induction)","number of infiltration foci in spinal cord (Lewis rats; 0.5 mg/kg, 15 days after induction, average±SD) [foci/section]","reduction in the clinical score (Lewis rats; 1 mg/kg, independent blinded repeat) [%]","reduction in the AUC of the clinical score (Lewis rats; 1 mg/kg, three consecutive days from onset of disease) [%]","therapeutic index (Lewis rats; EAE, 1 mg/kg versus tolerated 40 mg/kg)"
"CCCCCCC(C)(C)c1cc(OC)c(C2C=C(CO)C3CC2C3(C)C)c(OC)c1 (single isomer, unassigned; (+)) [HU-308, (+) {4-[4-(1,1-dimethylheptyl)-2,6-dimethoxy-phenyl]-6,6-dimethyl-bicyclo[3.1.1]hept-2-en-2-yl}-methanol, reference compound]",about 43%,–,–,–,–,–,–,–,–,–,–
"CCCCCCC(C)(C)c1cc(O)c(C2CC(=O)C3CC2C3(C)C)c(O)c1 (single isomer, unassigned; (-)) [Compound A, (−)-4-[4-(1,1-Dimethyl-heptyl)2,6-dihydroxy-phenyl]-6,6-dimethyl-bicyclo[3.1.1)heptan-2-one]",–,100,~70,100,30,81,more than 50%,10±5,30,35,at least 40
